Several values for one entry are separate records, joined by “and”; a condition that tells them apart may be missing. Identical values can stand only once.
Columns and labels:
[1] = molecular target: Glycogen synthase kinase-3 alpha (Homo sapiens, UniProt P49840); test: TR-FRET Assay
Protocol: (§1) The assay was performed in a white, 384 well, low volume, flat bottom plate (Grenier). […] The kinase activity was quenched with 2 μL of 250 mM EDTA. A 10 μL volume of 40 nM Strepavidin-d2, 2 nM Tb2+-pSer641 antibody in TR-FRET Detection Buffer (Invitrogen) was then added.

[2] = molecular target: Glycogen synthase kinase-3 beta (Homo sapiens, UniProt P49841); test: TR-FRET Assay
Chain of Glycogen synthase kinase-3 beta (P49841 whole entry): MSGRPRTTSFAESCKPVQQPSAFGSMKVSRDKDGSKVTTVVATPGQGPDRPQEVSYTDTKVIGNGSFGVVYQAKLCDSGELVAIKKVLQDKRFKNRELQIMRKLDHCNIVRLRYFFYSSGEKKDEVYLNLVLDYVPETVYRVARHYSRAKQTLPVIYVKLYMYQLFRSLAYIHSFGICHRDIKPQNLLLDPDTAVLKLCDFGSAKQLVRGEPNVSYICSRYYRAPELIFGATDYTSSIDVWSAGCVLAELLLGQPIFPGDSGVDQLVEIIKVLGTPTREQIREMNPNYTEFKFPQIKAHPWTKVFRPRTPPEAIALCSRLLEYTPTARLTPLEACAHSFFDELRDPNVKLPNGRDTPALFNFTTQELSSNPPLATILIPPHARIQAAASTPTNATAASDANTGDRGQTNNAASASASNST
Protocol: as §1

Chain of Glycogen synthase kinase-3 alpha (P49840 whole entry): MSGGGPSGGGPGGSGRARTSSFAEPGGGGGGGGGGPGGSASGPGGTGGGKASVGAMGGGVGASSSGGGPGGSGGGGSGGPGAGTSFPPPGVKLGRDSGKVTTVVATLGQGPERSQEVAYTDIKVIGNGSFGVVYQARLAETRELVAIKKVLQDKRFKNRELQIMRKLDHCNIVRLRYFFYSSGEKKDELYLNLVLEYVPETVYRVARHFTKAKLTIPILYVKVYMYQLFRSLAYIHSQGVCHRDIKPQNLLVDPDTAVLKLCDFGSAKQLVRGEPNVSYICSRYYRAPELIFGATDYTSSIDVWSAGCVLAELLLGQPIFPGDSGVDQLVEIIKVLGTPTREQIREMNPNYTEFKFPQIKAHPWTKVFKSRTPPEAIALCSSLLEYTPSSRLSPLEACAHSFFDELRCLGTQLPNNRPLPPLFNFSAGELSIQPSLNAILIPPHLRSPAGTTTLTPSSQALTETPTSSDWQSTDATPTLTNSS

Structure (SMILES) | IC50 [1] | IC50 [2]
CC1(C)CC(=O)C2=C(C1)NC1=C(CN=N1)C21CN(S(=O)(=O)c2ccccn2)C1 [US20250313563, Compound 913262] | < 100 nM | < 100 nM
CC[C@]1(c2cccc(-c3ccnc(C)c3C)c2)C2=C(CC(C)(C)NC2=O)NC2N=NC(C)=C21 (stereo not given in full) [US20250313563, Compound 948183] | 1000 to 5000 nM | > 5000 nM
Cn1ccc(S(=O)(=O)N2CCC3(CC2)C2=C(N=NC2)NC2=C3C(=O)CC(C)(C)[C@@H]2F)n1 [US20250313563, Compound 951708] | < 100 nM | 100 to 1000 nM
CC(=O)N1CCC2(C1)C1=CN=NC1NC1=C2C(=O)CC(C)(C)C1 (stereo not given) [US20250313563, Compound 826763] | 100 to 1000 nM | 1000 to 5000 nM
CC1(C)CC(=O)C2=C(C1)NC1=C(CN=N1)C21CCN(S(C)(=O)=O)CC1 [US20250313563, Compound 880776] | < 100 nM | < 100 nM
CC1(C)CC(=O)C2=C(C1)NC1=C(CN=N1)C21CN(C(=O)c2ccccc2)C1 [US20250313563, Compound 893315] | > 5000 nM | > 5000 nM
CCC1(c2cccc(N3CCCC3)c2)C2=C(CC(C)(C)NC2=O)NC2N=NC(C)=C21 (stereo not given) [US20250313563, Compound 947673] | < 100 nM | 100 to 1000 nM
CC1(C)CC(=O)C2=C(C1)NC1=C(CN=N1)C21CCN(S(=O)(=O)c2cccc(F)c2)CC1 [US20250313563, Compound 901466] | < 100 nM | < 100 nM
CC[C@]1(c2cccc(-c3ccncc3F)c2)C2=C(CC(C)(C)NC2=O)NC2N=NC(C(F)(F)F)=C21 (stereo not given in full) [US20250313563, Compound 948770] | 100 to 1000 nM | 100 to 1000 nM
CC1(C)CC(=O)C2=C(C1)NC1=C(CN=N1)[C@]21CCN(S(=O)(=O)CC2CC2)C1 [US20250313563, Compound 943481] | < 100 nM and 100 to 1000 nM | < 100 nM and 100 to 1000 nM
Cc1nccc([C@H]2CC[C@@]3(CC2)C2=C(N=NC2)NC2=C3C(=O)CC(C)(C)C2)c1C [US20250313563, Compound 950477] | 100 to 1000 nM | 100 to 1000 nM
CC1(C)CC(=O)C2=C(C1)NC1=C(CN=N1)[C@@]21CC[C@H](C(F)(F)F)C1 [US20250313563, Compound 952434] | 100 to 1000 nM | 100 to 1000 nM
COc1ccc(S(=O)(=O)N2CCC3(CC2)C2=C(N=NC2)NC2=C3C(=O)CC(C)(C)C2)c(F)c1 [US20250313563, Compound 947255] | < 100 nM | < 100 nM and 100 to 1000 nM
CC(C)(C)CC1N=NC2=C1[C@@](C)(c1cccc(S(=O)(=O)C(F)(F)F)c1)C1=C(CC(C)(C)CC1=O)N2 (stereo not given in full) [US20250313563, Compound 126396] | > 5000 nM | > 5000 nM
CC1(C)CC(=O)C2=C(C1)NC1N=NC(C(F)(F)F)=C1C21CCCc2ccccc21 (stereo not given) [US20250313563, Compound 790745] | < 100 nM | < 100 nM
CC(C)S(=O)(=O)N1CCC2(CC1)C1=C(N=NC1)NC1=C2C(=O)CC(C)(C)C1 [US20250313563, Compound 913129] | < 100 nM | < 100 nM and 100 to 1000 nM
CC1(C)CC(=O)C2=C(C1)NC1N=NC=C1C21CCCN(S(=O)(=O)Cc2ccccc2)CC1 (stereo not given) [US20250313563, Compound 932632] | < 100 nM | 100 to 1000 nM
CC[C@@]1(c2cccc(N(C)c3ncccn3)c2)C2=C(N=NC2)NC2=C1C(=O)C(C)(C)C2 [US20250313563, Compound 952205] | 1000 to 5000 nM | 
CC(C)(C)CC1=C2C(N=N1)NC1=C(C(=O)CC(C)(C)C1)C21COC1 (stereo not given) [US20250313563, Compound 90709] | 1790 nM and 13700 nM | 
CC[C@]1(c2cccc(S(=O)(=O)C3CC3)c2)C2=CN=NC2NC2=C1C(=O)NC(C)(C)C2 (stereo not given in full) [US20250313563, Compound 946004] | 100 to 1000 nM | 
CC[C@]1(c2cccc(C(F)(F)F)c2)C2=CN=NC2NC2=C1C(=O)N[C@@H](C(C)(C)C)C2 (stereo not given in full) [US20250313563, Compound 945921] | 1000 to 5000 nM | 
COC(=O)C1CCC2(CC1)C1=C(N=NC1)NC1=C2C(=O)CC(C)(C)C1 (stereo not given) [US20250313563, Compound 918277] | < 100 nM | 
CC[C@@]1(c2cccc(C(F)(F)F)c2)C2=CN=NC2NC2=C1C(=O)N(c1cncnc1)CC2 (stereo not given in full) [US20250313563, Compound 948380] | 100 to 1000 nM | 
Cc1ccc(S(C)(=O)=O)cc1[C@]1(C)C2=C(CC(C)(C)CC2=O)NC2=C1C(CC(C)(C)C)N=N2 (stereo not given in full) [US20250313563, Compound 126397] | 1000 to 5000 nM | 

Continued, values first:

IC50 [1] | IC50 [2] | Structure (SMILES)
< 100 nM | 100 to 1000 nM | CC[C@]1(c2cccc(-c3ncnn3C)c2)C2=CN=NC2NC2=C1C(=O)CC(C)(C)C2 (stereo not given in full) [US20250313563, Compound 945472]
< 100 nM and 100 to 1000 nM | < 100 nM and 1000 to 5000 nM | CC[C@]1(c2cccc(S(=O)(=O)CCOC)c2)C2=CN=NC2NC2=C1C(=O)CC(C)(C)C2 (stereo not given in full) [US20250313563, Compound 943542]
100 to 1000 nM | 100 to 1000 nM | CC[C@]1(c2cccc(-c3ccnc(C)c3)c2)C2=C(CC(C)(C)NC2=O)NC2N=NC(F)=C21 (stereo not given in full) [US20250313563, Compound 949001]
< 100 nM | < 100 nM and 100 to 1000 nM | CCC1(c2cccc(S(=O)(=O)C3CC3)c2)C2=CN=NC2NC2=C1C(=O)CC(C)(C)C2 (stereo not given) [US20250313563, Compound 909204]
< 100 nM | 100 to 1000 nM | CC[C@@]1(c2cccc([C@H]3CCOC3)c2)C2=CN=NC2NC2=C1C(=O)CC(C)(C)C2 (stereo not given in full) [US20250313563, Compound 889558]
100 to 1000 nM | 1000 to 5000 nM | CC[C@@]1(c2cccc(N3CCCc4ncccc43)c2)C2=CN=NC2NC2=C1C(=O)CC(C)(C)C2 (stereo not given in full) [US20250313563, Compound 917079]
< 100 nM | < 100 nM | CC[C@]1(c2cccc(-c3ccncc3F)c2)C2=C(CC(C)(C)CC2=O)NC2N=NC(C(F)(F)F)=C21 (stereo not given in full) [US20250313563, Compound 947326]
< 100 nM | < 100 nM and 100 to 1000 nM | CC[C@@]1(c2cccc(OC)c2)C2=C(CC(C)(C)CC2=O)NC2N=NC(C(F)(F)F)=C21 (stereo not given in full) [US20250313563, Compound 884117]
100 to 1000 nM | 100 to 1000 nM | CC[C@]1(c2cccc(-c3ccncc3Cl)c2)C2=CN=NC2NC2=C1C(=O)NC(C)(C)C2 (stereo not given in full) [US20250313563, Compound 948020]
< 100 nM | 100 to 1000 nM | CC[C@@]1(c2cccc(-c3ccnc(C)c3)c2)C2=C(CC(C)(C)NC2=O)NC2N=NC(C)=C21 (stereo not given in full) [US20250313563, Compound 948420]
< 100 nM | < 100 nM and 100 to 1000 nM | CC[C@]1(c2cccc(-c3cn(C)nc3C)c2)C2=CN=NC2NC2=C1C(=O)NC1(CCC1)C2 (stereo not given in full) [US20250313563, Compound 950055]
< 100 nM | 100 to 1000 nM | CCc1cc(-c2cccc(C3(CC)C4=CN=NC4NC4=C3C(=O)CC(C)(C)C4)c2)ccn1 (stereo not given) [US20250313563, Compound 947493]
100 to 1000 nM | 1000 to 5000 nM | CC[C@@]1(c2cccc(-c3ccncc3CO)c2)C2=CN=NC2NC2=C1C(=O)CC(C)(C)C2 (stereo not given in full) [US20250313563, Compound 945479]
1000 to 5000 nM |  | CC[C@]1(c2cccc(-c3cnn4c3CCCC4)c2)C2=CN=NC2NC2=C1C(=O)NC(C)(C)C2 (stereo not given in full) [US20250313563, Compound 947415]
1000 to 5000 nM |  | CC[C@]1(c2cccc(-c3ccn(C)n3)c2)C2=C(CC(C)(C)CC2=O)NC2N=NC(C)=C21 (stereo not given in full) [US20250313563, Compound 913039]
1000 to 5000 nM |  | CC[C@]1(c2cccc(-c3ccnn3C)c2)C2=CN=NC2NC2=C1C(=O)N[C@@](C)(COC)C2 (stereo not given in full) [US20250313563, Compound 947907]

IC50 [1] | IC50 [2] | Structure (SMILES)
1000 to 5000 nM |  | CC[C@]1(c2cccc(S(=O)(=O)C3CCCCC3)c2)C2=CN=NC2NC2=C1C(=O)CC(C)(C)C2 (stereo not given in full) [US20250313563, Compound 943547]
< 100 nM |  | CC[C@@]1(c2cccc(N(C)c3ncccn3)c2)C2=CN=NC2NC2=C1C(=O)CC(C)(C)C2 (stereo not given in full) [US20250313563, Compound 911981]
1000 to 5000 nM |  | CC[C@]1(c2cccc(-c3ccnc(C)c3)c2)C2=C(CC(C)(C)NC2=O)NC2N=NC(C(F)(F)F)=C21 (stereo not given in full) [US20250313563, Compound 948773]
1000 to 5000 nM |  | CC[C@]1(c2cccc(-c3cnn(CCOC)c3)c2)C2=CN=NC2NC2=C1C(=O)NC(C)(C)C2 (stereo not given in full) [US20250313563, Compound 949114]
1000 to 5000 nM |  | CC[C@]1(c2cccc(-c3ccncc3)c2)C2=CN=NC2NC2=C1C(=O)CC(C)(C)[C@H]2F (stereo not given in full) [US20250313563, Compound 959342]
< 100 nM and 100 to 1000 nM |  | CCC1(c2cccc(OCC(F)F)c2)C2=CN=NC2NC2=C1C(=O)CC(C)(C)C2 (stereo not given) [US20250313563, Compound 948793]
1000 to 5000 nM |  | CC[C@@]1(c2cccc(C3CCC3)c2)C2=CN=NC2NC2=C1C(=O)CC(C)(C)C2 (stereo not given in full) [US20250313563, Compound 949514]
100 to 1000 nM |  | CC[C@@]1(c2cccc(-c3ccnn3C)c2)C2=CN=NC2NC2=C1C(=O)CC(C)(C)[C@@H]2F (stereo not given in full) [US20250313563, Compound 957509]
< 100 nM and 100 to 1000 nM |  | CC[C@@]1(c2cccc(-c3ccnc4cccnc34)c2)C2=CN=NC2NC2=C1C(=O)NC(C)(C)C2 (stereo not given in full) [US20250313563, Compound 952560]
1000 to 5000 nM |  | CC[C@@]1(c2cccc(-c3ccncc3)c2)C2=CN=NC2NC2=C1C(=O)C[C@@H](C)C2 (stereo not given in full) [US20250313563, Compound 874315]
1000 to 5000 nM |  | CC[C@@]1(c2cccc(-c3ccnc(C)c3)c2)C2=CN=NC2NC2=C1C(=O)N[C@]1(CCOC1)C2 (stereo not given in full) [US20250313563, Compound 948148]
100 to 1000 nM |  | CC[C@]1(c2cccc(-c3ccnn3CCC(C)C)c2)C2=CN=NC2NC2=C1C(=O)CC(C)(C)C2 (stereo not given in full) [US20250313563, Compound 946096]
100 to 1000 nM |  | CC[C@]1(c2cccc(-c3ccncc3C)c2)C2=CN=NC2NC2=C1C(=O)NC1(CCOCC1)C2 (stereo not given in full) [US20250313563, Compound 948367]
1000 to 5000 nM |  | CC[C@@]1(c2cccc(OC(C)C)c2)C2=CN=NC2NC2=C1C(=O)CC(C)(C)C2 (stereo not given in full) [US20250313563, Compound 811563]
100 to 1000 nM |  | CC[C@]1(c2cccc(S(=O)(=O)C3COC3)c2)C2=CN=NC2NC2=C1C(=O)CC(C)(C)C2 (stereo not given in full) [US20250313563, Compound 946003]
